Test results from US9115117B2, “Substituted piperidine compounds and their use as orexin receptor modulators” (JANSSEN PHARMACEUTICA NV, priority 2013, dated 2015).
Structures can show the parent of a compound that is named as a salt. Where two headings read alike, the source gives them in different places.

Legend:
rat orexin 1 receptor = rat orexin 1 receptor (Rattus norvegicus, UniProt P56718); assay: Rat orexin 1 receptor radioligand binding; details: HEK293 cells stably expressing rat orexin 1 receptor; apparent Ki; read-out: rOX1 Ki
In short: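 Homogenized cell suspensions competed against 4 nM final of a tritiated oxadiazolyl-pyrrolidinyl thiazole methanone radioligand (35.3 Ci/mmol) in PBS, with DMSO ≤0.1%. Nonspecific binding defined with 10 μM almorexant; after washing and drying, bound radioactivity counted by scintillation.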

human orexin 1 receptor = human orexin 1 receptor (Homo sapiens, UniProt O43613); assay: Human orexin 1 receptor radioligand binding; details: CHO cells stably expressing human orexin 1 receptor; apparent Ki; read-out: hOX1 Ki
Description: The in vitro affinity of the compounds of the invention for the rat/human orexin 1 and human orexin 2 receptors was determined by competitive radioligand binding using [^3H](1-(5-(2-fluoro-phenyl)-2-methyl-thiazol-4-yl)-1-((S)-2-(5-phenyl-(1,3,4)oxadiazol-2-ylmethyl)-pyrrolidin-1-yl)-methanone)(Langmead et al., 2004) and [^3H]EMPA (n-ethyl-2[96-methoxy-pyridin-3-yl)-(toluene-2-sulfonyl)-amino]-N-pyridin-3-ylmethyl acetamide), respectively (Langmead et al., 2004, British Journal of Pharmacology 141:340-346; Malherbe et al., 2004, British Journal of Pharmacology 156:1326-41).
Human Embryonic Kidney 293 cells (HEK293) stably expressing rat orexin 1 receptor (Genebank accession number NM_001525) or Chinese ovary cells (CHO) stably expressing human orexin 1 receptor (Genebank accession number NM_001526) were grown to confluency in DMEM (Hyclone, cat #SH30022), 10% FBS, 1× Pen/Strep, 1× sodium pyruvate, 10 mM HEPES, 600 µg/mL G418 and DMEM/F12 (Gibco, Cat #11039), 10% FBS, 1× Pen/Strep, 600 µg/mL G418 media, respectively on 150 cm^2 tissue culture plates, washed with 5 mM EDTA in PBS (HyClone Dulbecco's Phoshpate Buffered Saline 1× with Calcium and Magnesium, Cat #SH30264.01, hereafter referred to simply as PBS) and scraped into 50 ml tubes. After centrifugation (2K×G, 5 min at 4° C.), the supernatant was aspirated and the pellets frozen and stored at −80° C. Cells were resuspended in PBS in the presence of 1 tablet of protease inhibitor cocktail (Roche, Cat. #11836145001) per 50 mL. Each cell pellet from a 15 cm plate was resuspended in 10 mL, stored on ice, and homogenized for 45 sec prior to addition to the reactions. Competition binding experiments in 96 well polypropylene plates were performed using [^3H]-(1-(5-(2-fluoro-phenyl)-2-methyl-thiazol-4-yl)-1-((S)-2-(5-phenyl-(1,3,4)oxadiazol-2-ylmethyl)-pyrrolidin-1-yl)-methanone) (Moraveck Corporation, specific activity=35.3 Ci/mmol), diluted to a 10 nM concentration in PBS (4 nM final). […] The final concentration of DMSO in the reactions is equal to or less than 0.1%. Total and nonspecific binding was determined in the absence and presence of 10 μM almorexant. The total volume of each reaction is 200 μL (20 μL of diluted compounds, 80 μL of [3H]-(1-(5-(2-fluoro-phenyl)-2-methyl-thiazol-4-yl)-1-((S)-2-(5-phenyl-(1,3,4)oxadiazol-2-ylmethyl)-pyrrolidin-1-yl)-methanone) diluted in PBS and 100 μL of the cell suspension). Reactions were run for 60 min at room temperature and terminated by filtration through GF/C filter plates (PerkinElmer, Cat. #6005174) presoaked in 0.3% polyethylenimine using the cell harvester (PerkinElmer Filtermate). The plates were washed 3 times by aspirating 30 ml PBS through the plates. Plates were dried in 55° C. oven for 60 min, scintillation fluid was added, and the radioactivity was counted on a Topcount (Packard).

human orexin 2 receptor = human orexin 2 receptor (Homo sapiens (Human), UniProt O43614); assay: Human orexin 2 receptor radioligand binding ([3H]-EMPA)
In short: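 Competition binding with 2 nM final [3H]-EMPA in PBS against homogenized whole-cell suspension; DMSO ≤0.1%. Nonspecific binding defined with […] almorexant. Plates washed with PBS, dried, and bound radioactivity counted by scintillation.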

[1] = HEK293 stably expressing human orexin 2 receptor, [3H]-EMPA, apparent Ki, read-out: hOX2 Ki

human orexin 2 receptor, sequence (O43614 whole entry): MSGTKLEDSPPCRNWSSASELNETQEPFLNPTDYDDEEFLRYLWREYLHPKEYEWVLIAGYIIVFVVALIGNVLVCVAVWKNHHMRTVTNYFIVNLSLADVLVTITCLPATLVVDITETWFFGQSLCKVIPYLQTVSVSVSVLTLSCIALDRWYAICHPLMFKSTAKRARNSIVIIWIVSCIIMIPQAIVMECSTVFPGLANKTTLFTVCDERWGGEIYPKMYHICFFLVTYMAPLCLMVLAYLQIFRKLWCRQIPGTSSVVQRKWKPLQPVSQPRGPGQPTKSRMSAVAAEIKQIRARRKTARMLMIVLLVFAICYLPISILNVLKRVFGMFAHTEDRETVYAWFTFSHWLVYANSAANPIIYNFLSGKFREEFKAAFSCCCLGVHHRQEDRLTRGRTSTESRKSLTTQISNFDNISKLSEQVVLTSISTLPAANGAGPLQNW

Row | Compound | Ki (rat orexin 1 receptor) [nM] | Ki (human orexin 1 receptor) [nM] | Ki (human orexin 2 receptor; [1]) [nM] | Ki (human orexin 2 receptor) [nM]
1 | Cc1cccc(C(=O)N2CCC[C@@H](Nc3ccc(C(F)(F)F)cn3)[C@@H]2C)c1-n1nccn1 (racemic) [Example 20, (±)-trans-(3-methyl-2-(2H-1,2,3-triazol-2-yl)phenyl)(2-methyl-3-((5-(trifluoromethyl)pyridin-2-yl)amino)piperidin-1-yl)methanone] | 14 | 8 | 150 | –
2 | Cc1ccc(-c2ncco2)c(C(=O)N2CCC[C@@H](Nc3ccc(C(F)(F)F)cn3)[C@@H]2C)n1 (racemic) [Example 22, (±)-trans-(2-methyl-3-((5-(trifluoromethyl)pyridin-2-yl)amino)piperidin-1-yl)(6-methyl-3-(oxazol-2-yl)pyridin-2-yl)methanone hydrochloride] | 33 | 19 | 422 | –
3 | CCOc1ccccc1C(=O)N1CCC[C@@H](Nc2ccc(C(F)(F)F)cn2)[C@@H]1C (racemic) [Example 29, (±)-trans-(2-ethoxyphenyl)(2-methyl-3-((5-(trifluoromethyl)pyridin-2-yl)amino)piperidin-1-yl)methanone] | 97 | 90 | 1400 | –
4 | C[C@H]1[C@H](Nc2ccc(C(F)(F)F)nn2)CCCN1C(=O)c1ccccc1-n1nccn1 (racemic) [Example 33, (±)-trans-(2-(2H-1,2,3-triazol-2-yl)phenyl)(2-methyl-3-((6-(trifluoromethyl)pyridazin-3-yl)amino)piperidin-1-yl)methanone hydrochloride] | 199 | 160 | 4800 | –
5 | C[C@H]1[C@H](Nc2cnc(C(F)(F)F)cn2)CCCN1C(=O)c1ccccc1-n1nccn1 (racemic) [Example 38, (±)-trans-(2-(2H-1,2,3-triazol-2-yl)phenyl)(2-methyl-3-((5-(trifluoromethyl)pyrazin-2-yl)amino)piperidin-1-yl)methanone] | 18 | 25 | 529 | –
6 | CCOc1ccccc1C(=O)N1CCC[C@@H](Nc2ccc(Br)cn2)[C@@H]1C (racemic) [Example 44, (±)-trans-(3-(5-bromopyridin-2-yl)amino)-2-methylpiperidin-1-yl)(2-ethoxyphenyl)methanone] | 82 | 72 | 1600 | –
7 | C[C@H]1[C@H](Nc2nc3cc(Cl)ccc3o2)CCCN1C(=O)c1ccccc1-n1nccn1 (racemic) [Example 45, (±)-trans-(2-(2H-1,2,3-triazol-2-yl)phenyl)(3-((5-chlorobenzo[d]oxazol-2-yl)amino)-2-methylpiperidin-1-yl)methanone] | 28 | 26 | 281 | –
8 | Cc1ccc(C(=O)N2CCC[C@@H](Nc3ccc(C(F)(F)F)cn3)[C@@H]2C)c(-n2nccn2)c1 [Example 14, (4-methyl-2-(2H-1,2,3-triazol-2-yl)phenyl)((2S,3R)-2-methyl-3-((5-(trifluoromethyl)pyridin-2-yl)amino)piperidin-1-yl)methanone] | 9 | 7 | 681 | –
9 | Cc1ccc(-c2ncco2)c(C(=O)N2CCC[C@@H](Nc3ccc(C(F)(F)F)cn3)[C@@H]2C)n1 [Example 25, ((2S,3R)-2-methyl-3-((5-(trifluoromethyl)pyridin-2-yl)amino)piperidin-1-yl)(6-methyl-3-(oxazol-2-yl)pyridin-2-yl)methanone hydrochloride] | 11 | 19 | 190 | –
10 | Cc1cnc(C(=O)N2CCC[C@@H](Nc3ccc(C(F)(F)F)cn3)[C@@H]2C)c(-n2nccn2)c1 [Example 26, ((2S,3R)-2-methyl-3-((5-(trifluoromethyl)pyridin-2-yl)amino)piperidin-1-yl)(5-methyl-3-(2H-1,2,3-triazol-2-yl)pyridin-2-yl)methanone] | 11 | 14 | 2040 | –
11 | Cc1ccc(C(=O)N2CCC[C@@H](Nc3ncc(C(F)(F)F)cn3)[C@@H]2C)c(-n2nccn2)n1 [Example 69, (6-methyl-2-(2H-1,2,3-triazol-2-yl)pyridin-3-yl)((2S,3R)-2-methyl-3-((5-(trifluoromethyl)pyrimidin-2-yl)amino)piperidin-1-yl)methanone] | 70 | 112 | > 10000 | –
12 | Cc1ccc(C(=O)N2CCC[C@@H](Nc3ncc(C(F)(F)F)cn3)[C@@H]2C)c(-n2ccnn2)n1 [Example 70, (6-methyl-2-(1H-1,2,3-triazol-1-yl)pyridin-3-yl)((2S,3R)-2-methyl-3-((5-(trifluoromethyl)pyrimidin-2-yl)amino)piperidin-1-yl)methanone] | 170 | 165 | 7500 | –
13 | Cc1ccc(C(=O)N2CCC[C@@H](Nc3ncc(C(F)(F)F)cn3)[C@@H]2C)c(-n2nccn2)c1 [Example 71, (4-methyl-2-(2H-1,2,3-triazol-2-yl)phenyl)((2S,3R)-2-methyl-3-((5-(trifluoromethyl)pyrimidin-2-yl)amino)piperidin-1-yl)methanone] | 10 | 12 | 1500 | –
14 | Cc1cnc(C(=O)N2CCC[C@@H](Nc3cnc(C(F)(F)F)cn3)[C@@H]2C)c(-n2nccn2)c1 [Example 72, ((2S,3R)-2-methyl-3-((5-(trifluoromethyl)pyrazin-2-yl)amino)piperidin-1-yl)(5-methyl-3-(2H-1,2,3-triazol-2-yl)pyridin-2-yl)methanone] | 24 | 33 | 4020 | –
15 | Cc1cnc(C(=O)N2CCC[C@@H](Nc3nc4ccccc4o3)[C@@H]2C)c(-n2nccn2)c1 [Example 73, ((2S,3R)-3-(benzo[d]oxazol-2-ylamino)-2-methylpiperidin-1-yl)(5-methyl-3-(2H-1,2,3-triazol-2-yl)pyridin-2-yl)methanone] | 7 | 21 | 1890 | –
16 | Cc1ccc(C(=O)N2CCC[C@@H](Nc3cnc(C(F)(F)F)cn3)[C@@H]2C)c(-n2nccn2)n1 [Example 74, (6-methyl-2-(2H-1,2,3-triazol-2-yl)pyridin-3-yl)((2S,3R)-2-methyl-3-((5-(trifluoromethyl)pyrazin-2-yl)amino)piperidin-1-yl)methanone] | 40 | 52 | – | > 10000
17 | Cc1ccc(C(=O)N2CCC[C@@H](Nc3nc4ccccc4o3)[C@@H]2C)c(-n2nccn2)n1 [Example 75, ((2S,3R)-3-(benzo[d]oxazol-2-ylamino)-2-methylpiperidin-1-yl)(6-methyl-2-(2H-1,2,3-triazol-2-yl)pyridin-3-yl)methanone] | 23 | 40 | 9500 | –
18 | Cc1ccc(C(=O)N2CCC[C@@H](Nc3nc4ccccc4o3)[C@@H]2C)c(-n2ccnn2)n1 [Example 76, ((2S,3R)-3-(benzo[d]oxazol-2-ylamino)-2-methylpiperidin-1-yl)(6-methyl-2-(1H-1,2,3-triazol-1-yl)pyridin-3-yl)methanone] | 54 | 62 | 1300 | –
19 | Cc1cnc(C(=O)N2CCC[C@@H](Nc3ccc(Cl)cn3)[C@@H]2C)c(-c2ncco2)c1 [Example 77, ((2S,3R)-3-((5-chloropyridin-2-yl)amino)-2-methylpiperidin-1-yl)(5-methyl-3-(oxazol-2-yl)pyridin-2-yl)methanone] | 36 | 55 | 4020 | –
